The values below come from PMC3369547, “Antimicrobial Constituents of Artemisia afra Jacq. ex Willd. against Periodontal Pathogens” (Evidence-based Complementary and Alternative Medicine : eCAM, 2012).

Data set [1] deals with Aggregatibacter actinomycetemcomitans (ATCC 33384). The experiment in a line: Microdilution MIC/MMC (INT) against Aggregatibacter actinomycetemcomitans. Format: cell-based. Conditions: A.a, Gram –ve, table title says mg/mL; for MBC: MMC in title. As for the experimental part:
(§1) The microorganisms used in this study include Actinomyces naeslundii (ATCC 19039), Actinomyces israelii (ATCC 10049), Aggregatibacter actinomycetemcomitans (ATCC 33384), Candida albicans (Med I), Porphyromonas gingivalis (ATCC 33277), Prevotella intermedia (ATCC 25611), and Streptococcus mutans (ATCC 25175). Bacteria were grown in the Casein-peptone Soy Agar medium (CASO) (Merck SA (Pty) Ltd.) under anaerobic conditions in a jar with anaerocult A (Merck SA (Pty) Ltd.), at 37°C for 48 hours. Sabouraud Dextrose Agar medium (SDA) (Merck SA (Pty) Ltd.) was used for the culturing of Candida albicans and incubated at 37°C for 24 hours under aerobic conditions. Subculturing was done once weekly.
(§2) The microdilution technique using 96-well microplates was used to obtain the MIC and MMC values of the crude extract against microorganisms under study. The extract was serially diluted in the 96-well plate with 48 hours old microorganisms (5 × 10^6 CFU/mL) grown at 37°C and the final concentration of extract and positive control (CHX) ranged from 25.0 mg/mL to 0.8 mg/mL. Microbial growth was indicated by adding 40 μL of (0.2 mg/mL) p-iodonitrotetrazolium violet (INT) (Sigma-Aldrich, South Africa) to microplate wells and incubated at 37°C for 48 hours. MIC was defined as the lowest concentration that inhibited the colour change of INT. […] These suspensions were reincubated at 37°C for 48 hours. The MMC was determined as the lowest concentration of extract which inhibited 100% growth of microorganisms.
(Dilution methods test growth across graded concentrations, often in twofold steps.)

Another data set has as its system oral microorganisms. Nature of the data set: Microdilution MIC/MMC, summary over tested microbial species. Format: cell-based. The following applies: against A. israelii and A. naeslundii. As for the experimental part: as §1, §2
Data set [2] is described as follows: XTT cell proliferation (cytotoxicity) assay on McCoy cells. It counts as cell-based. Conditions: mouse. As for the experimental part: (§3) Extract and compounds were dissolved in dimethyl sulfoxide (DMSO) and stored at −20°C. All tested compounds were diluted to the final concentration with RPMI 1640 and control cultures were diluted with 0.1% DMSO.
(§4) McCoy cells were maintained in monolayer culture at 37°C and 5% CO2 with 10% […] Medium, 10 μg/mL of penicillin, 10 μg/mL, streptomycin, 40 μg/mL gentamycin, and 0.25 μg/mL fungizone.
(§5) A microtiter plate with McCoy cells was used for testing all the ethanol extracts for cytotoxicity following the method of [26]. Cytotoxicity was measured by the XTT (sodium 3′-[1-(phenyl amino-carbonyl)-3,4-tetrazolium]-bis-[4-methoxy-6-nitro] benzene sulfonic acid hydrate) method using a cell proliferation kit II (Roche Diagnostics GmbH). Hundred microlitres of McCoy cells (1 × 10^5 mL) was seeded onto a microtiter plate and incubated for 24 h to allow the cells to attach to the bottom of the plate. Dilution series were made of the extract and compound and the various concentrations (400 to 3.1 μg/mL) were added to the microtitre plate and incubated for 48 h. The XTT reagents were added to a final concentration of 0.3 mg/mL and the cells were incubated for 1-2 hours. The positive drug control (Zearalenone) at concentrations range of (10 μg/mL to 0.6 μg/mL) was included in the assay. After incubation the absorbance of the colour was spectrophotometrically quantified using an ELISA plate reader, which measured the optical density at 490 nm with a reference wavelength of 690 nm. The assay was carried out in triplicate.
(In general: Formazan colour is commonly taken as a measure of viable cells.)

The next data set has as its system lung cancer (A549) cell. On the set-up: method as in PMID 15246561. The following applies: A549 cells; read-out: IC50 cell proliferation; cited from earlier work.
Another data set concerns Candida albicans (Med I). Nature of the data set: Microdilution MIC/MMC (INT) against Candida albicans. It counts as cell-based. The following applies: C.a, Yeast, table title says mg/mL; for MBC: MMC in title. As for the experimental part: as §1, §2
The test system of data set [3] is Porphyromonas gingivalis (ATCC 33277). Nature of the data set: Microdilution MIC/MMC (INT) against Porphyromonas gingivalis. It counts as cell-based. Conditions: P.g, Gram –ve, table title says mg/mL; for MBC: MMC in title. As for the experimental part:
as §1, §2

In data set [4] the test system is Actinomyces israelii (ATCC 10049). The experiment in a line: Microdilution MIC/MMC (INT) against Actinomyces israelii. It counts as cell-based. The following applies: A.i, Gram +ve, table title says mg/mL; for MBC: MMC in title. As for the experimental part: as §1, §2
Data set [5] relates to Actinomyces naeslundii (ATCC 19039). Nature of the data set: Microdilution MIC/MMC (INT) against Actinomyces naeslundii. Format: cell-based. Conditions: A.n, Gram +ve, table title says mg/mL; for MBC: MMC in title. As for the experimental part:
as §1, §2

Data set [6] relates to Prevotella intermedia (ATCC 25611). The experiment in a line: Microdilution MIC/MMC (INT) against Prevotella intermedia. The following applies: P.i, Gram –ve, table title says mg/mL; for MBC: MMC in title. Format: cell-based. As for the experimental part:
as §1, §2

A short description of data set [7]: DPPH free radical scavenging assay. Conditions: 37°C, 30 min, 517 nm. Format: biochemical. As for the experimental part: The free radical scavenging activity was measured using 1, 1 diphenyl-2-picryl-hydraxyl (DPPH) assay with slight modifications. The ethanol extract of A. afra and Vitamin C (positive control) 1000 μg/mL (20 μL) was added in the first three wells of a 96-well plate containing 200 μL of distilled water to make up final concentration of 100 μg/mL and the remaining wells were filled with 110 μL of distilled water. The first raws containing the extract/compounds were serially diluted to wells which contain 110 μL of distilled water, and later, 90 μL of methanolic solution of DPPH ([…]) was added to all the wells. The final concentrations of the extract/compounds ranged from 100 to 0.8 μg/mL. The plates were incubated at 37°C for 30 min and the absorbance was measured at 517 nm using the ELISA plate reader. The percent radical scavenging activity by A. afra was determined by comparison with ethanol (blank). The inhibition ratio was calculated as follows: % DPPH radical-scavenging = (AC-AS)/AC × 100, where AC is absorbance of the control solution (containing only DPPH solution), and AS is the absorbance of the sample in DPPH solution. The percentage of DPPH radical-scavenging was plotted against the plant extract/compounds concentrations (μg/mL) to determine the concentration of extract/compound required to scavenge DPPH by 50% (EC50).

In another data set the test system is McCoy fibroblast cells. Nature of the data set: XTT cell proliferation (cytotoxicity) assay on McCoy cells. It counts as cell-based. The following applies: McCoy cells, XTT, 48 h. As for the experimental part:
as §3, §4, §5

Setting [8] is: Aggregatibacter actinomycetemcomitans, ATCC33384.
Setting [9] is: Porphyromonas gingivalis, ATCC33277.
Setting [10] is: Actinomyces israelii, ATCC10049.
Where [11] appears, read: Actinomyces naeslundii, ATCC19039.
The mark [12] stands for this setting: Prevotella intermedia, ATCC25611.

Values after ≈ are worked out from the molar mass of the structure shown.

As for `COc1ccc(-c2cc(=O)c3c(O)cc(O)cc3o2)cc1` [compound 1, acacetin], the MBC is greater than 1000 µg/mL in data set [1] (setting [8]); greater than 1000 µg/mL against Candida albicans (Med I); greater than 1000 µg/mL in data set [3] (setting [9]); 500 µg/mL (≈ 1.76 mM) in data set [4] (setting [10]); 1000 µg/mL (≈ 3.52 mM) in data set [5] (setting [11]); greater than 1000 µg/mL in data set [6] (setting [12]). Also, the MIC is greater than 1000 µg/mL in data set [1] (setting [8]); 250 µg/mL (≈ 0.879 mM) in the data set with oral microorganisms (read-out: lowest MIC and MMC value); greater than 1000 µg/mL against Candida albicans (Med I); 1000 µg/mL (≈ 3.52 mM) in data set [3] (setting [9]); 250 µg/mL (≈ 0.879 mM) in data set [4] (setting [10]); 1000 µg/mL (≈ 3.52 mM) in data set [5] (setting [11]). In [6] (setting [12]), this compound registered an MIC of 1000 µg/mL (≈ 3.52 mM). For the same compound, the IC50 at 48 h in data set [2] was found to be 35.4 µg/mL (≈ 0.125 mM). In the data set on lung cancer (A549) cell, the IC50 was 9.46 µM. For the same compound, the “DPPH scavenging IC50” value in [7] came to 2.39 µg/mL.
As to scopoletin [compound 3], the MBC in data set [1] is greater than 1000 µg/mL; in the data set with Candida albicans (Med I) it was greater than 1000 µg/mL; in data set [3], greater than 1000 µg/mL; in data set [4], 500 µg/mL; in [5], greater than 1.0 µg/mL; in data set [6] it was 1.0 µg/mL. In addition, the MIC in data set [1] was greater than 1000 µg/mL; in the data set with Candida albicans (Med I), greater than 1000 µg/mL; in [3], greater than 1.0 µg/mL; in data set [4], 250 µg/mL; in data set [5], 1000 µg/mL; in data set [6] it was 500 µg/mL. Also, the “lowest MIC and MMC value” with oral microorganisms amounted to 250 µg/mL. Also, the “IC50 (cytotoxicity)” value with McCoy fibroblast cells is 132.5 µg/mL. Moreover, the “DPPH scavenging IC50” value in [7] is 1.24 µg/mL.
